This note sets out measurements from the supplement of paper PMC10307832.

Holding throughout (test): relative viability (nuclei count vs DMSO), 5 days (fraction); higher = more cells survive
Compound in one test: C=CCn1c(=O)c2cnc(Nc3ccc(N4CCN(C)CC4)cc3)nc2n1-c1cccc(C(C)(C)O)n1 [Adavosertib]
In a few lines: (§1)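 Lung cancer cell lines received five library-drug doses (not always all listed) spaced by √10, pinned on vehicle-anchored 1536-well plates after an overnight stay at 37 °C. Five days later, with no medium change, nuclei were Hoechst-stained, imaged at 4× and counted with MetaXpress. Viability is treated-well nuclei relative to vehicle-well nuclei, as a median across plates. Passing plates had control CV below 25% and at least one doubling.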

Compound in a further test: COc1nc(N)nc2c1ncn2[C@@H]1O[C@H](CO)[C@@H](O)[C@@H]1O [Nelarabine]
A digest of the protocol: as §1

Compound in the test “Adavosertib + Alpelisib”: C=CCn1c(=O)c2cnc(Nc3ccc(N4CCN(C)CC4)cc3)nc2n1-c1cccc(C(C)(C)O)n1 [Adavosertib] + Cc1nc(NC(=O)N2CCC[C@H]2C(N)=O)sc1-c1ccnc(C(C)(C)C(F)(F)F)c1 [Alpelisib] (partner 2 µM)
In a few lines: (§2)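 For relative viability, nuclei counts in treated wells were divided by those in vehicle wells. Lung cancer cell lines had been pin-tool dosed in 1536-well plates the day after seeding and cultured for 5 days, then fixed and stained in one step (final 0.05% Triton X-100, 1% formaldehyde, 1 ug/ml Hoechst) and imaged at 4×. Doses were one drug alone or a fixed anchor-drug dose plus five library-drug doses (not always all listed) in √10 steps, and values are duplicate-plate medians.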

Compound in the test “Nelarabine + Pemetrexed”: COc1nc(N)nc2c1ncn2[C@@H]1O[C@H](CO)[C@@H](O)[C@@H]1O [Nelarabine] + Nc1nc2[nH]cc(CCc3ccc(C(=O)N[C@@H](CCC(=O)O)C(=O)O)cc3)c2c(=O)[nH]1 [Pemetrexed] (partner 0.2 µM)
A digest of the protocol:
as §2

As to EKVX, the relative viability with Adavosertib (0.01 µM) is 0.975; with Adavosertib (0.03162 µM) it was 0.967; with Adavosertib (0.1 µM), 0.955; with Adavosertib (0.3162 µM) it was 1.1; in the test with Nelarabine (0.01 µM), 1.09; with Nelarabine (0.03162 µM), 0.898. In addition, the relative viability in the test with Nelarabine (0.1 µM) worked out at 0.857; with Nelarabine (0.3162 µM), 1.09; with Nelarabine (1 µM), 0.968; with Adavosertib + Alpelisib (first compound 0.01 µM), 0.843; with Adavosertib + Alpelisib (first compound 0.03162 µM), 0.858; with Adavosertib + Alpelisib (first compound 0.1 µM), 0.833. Besides, the relative viability is 0.911 in the test with Adavosertib + Alpelisib (first compound 0.3162 µM); 0.431 with Nelarabine + Pemetrexed (first compound 0.01 µM); 0.436 in the test with Nelarabine + Pemetrexed (first compound 0.03162 µM); 0.417 with Nelarabine + Pemetrexed (first compound 0.1 µM); 0.506 with Nelarabine + Pemetrexed (first compound 0.3162 µM); 0.46 with Nelarabine + Pemetrexed (first compound 1 µM).

For EMC-BAC-2, the relative viability in the test with Adavosertib (0.03162 µM) came to 1.02; with Adavosertib (0.1 µM), 1.08; with Adavosertib (0.3162 µM) it was 0.919; in the test with Nelarabine (0.01 µM) it was 1.01; with Nelarabine (0.03162 µM), 1.22; in the test with Nelarabine (0.1 µM) it was 1.08. In addition, the relative viability worked out at 0.968 with Nelarabine (0.3162 µM); 1.07 with Nelarabine (1 µM); 0.736 with Adavosertib + Alpelisib (first compound 0.01 µM); 0.737 with Adavosertib + Alpelisib (first compound 0.03162 µM); 0.722 with Adavosertib + Alpelisib (first compound 0.1 µM); 0.678 in the test with Adavosertib + Alpelisib (first compound 0.3162 µM). Moreover, the relative viability with Nelarabine + Pemetrexed (first compound 0.01 µM) stood at 0.44; in the test with Nelarabine + Pemetrexed (first compound 0.03162 µM), 0.456; with Nelarabine + Pemetrexed (first compound 0.1 µM) it was 0.502; with Nelarabine + Pemetrexed (first compound 0.3162 µM) it was 0.52; with Nelarabine + Pemetrexed (first compound 1 µM) it was 0.508.

On to EPLC-272H, for which the relative viability is 0.853 in the test with Adavosertib (0.01 µM); 0.961 with Adavosertib (0.03162 µM); 0.757 in the test with Adavosertib (0.1 µM); 0.497 with Adavosertib (0.3162 µM); 1.01 with Nelarabine (0.01 µM); 1 with Nelarabine (0.03162 µM). Further, the relative viability turned out to be 0.878 in the test with Nelarabine (0.1 µM); 0.952 in the test with Nelarabine (0.3162 µM); 0.881 with Nelarabine (1 µM); 0.918 with Adavosertib + Alpelisib (first compound 0.01 µM); 0.893 with Adavosertib + Alpelisib (first compound 0.03162 µM); 0.868 with Adavosertib + Alpelisib (first compound 0.1 µM). For the same cell line, the relative viability in the test with Adavosertib + Alpelisib (first compound 0.3162 µM) turned out to be 0.723; in the test with Nelarabine + Pemetrexed (first compound 0.01 µM) it was 0.3; in the test with Nelarabine + Pemetrexed (first compound 0.03162 µM), 0.288; with Nelarabine + Pemetrexed (first compound 0.1 µM), 0.308; with Nelarabine + Pemetrexed (first compound 0.3162 µM), 0.289; with Nelarabine + Pemetrexed (first compound 1 µM), 0.378.

As for H3255, the relative viability with Adavosertib (0.01 µM) worked out at 0.888; in the test with Adavosertib (0.03162 µM) it was 1.07; with Adavosertib (0.1 µM) it was 1.02; in the test with Adavosertib (0.3162 µM), 1.08; in the test with Nelarabine (0.01 µM), 0.998; in the test with Nelarabine (0.03162 µM) it was 1.08. In addition, the relative viability turned out to be 0.987 with Nelarabine (0.1 µM); 0.963 with Nelarabine (0.3162 µM); 0.97 in the test with Nelarabine (1 µM); 0.648 with Adavosertib + Alpelisib (first compound 0.01 µM); 0.689 with Adavosertib + Alpelisib (first compound 0.03162 µM); 0.716 with Adavosertib + Alpelisib (first compound 0.1 µM). The relative viability with Adavosertib + Alpelisib (first compound 0.3162 µM) was found to be 0.668; with Nelarabine + Pemetrexed (first compound 0.01 µM), 0.531; with Nelarabine + Pemetrexed (first compound 0.03162 µM), 0.571; with Nelarabine + Pemetrexed (first compound 0.1 µM), 0.557; with Nelarabine + Pemetrexed (first compound 0.3162 µM), 0.551; with Nelarabine + Pemetrexed (first compound 1 µM), 0.571.

On to HARA, for which the relative viability stood at 0.929 with Adavosertib (0.01 µM); 1.04 with Adavosertib (0.03162 µM); 1.01 in the test with Adavosertib (0.1 µM); 0.897 with Adavosertib (0.3162 µM); 1.2 in the test with Nelarabine (0.01 µM); 1.14 with Nelarabine (0.03162 µM). The relative viability is 0.97 in the test with Nelarabine (0.1 µM); 1.06 with Nelarabine (0.3162 µM); 1.01 in the test with Nelarabine (1 µM); 0.746 with Adavosertib + Alpelisib (first compound 0.01 µM); 0.858 with Adavosertib + Alpelisib (first compound 0.03162 µM); 0.814 in the test with Adavosertib + Alpelisib (first compound 0.1 µM). Also, the relative viability with Adavosertib + Alpelisib (first compound 0.3162 µM) is 0.63; with Nelarabine + Pemetrexed (first compound 0.01 µM) it was 0.233; in the test with Nelarabine + Pemetrexed (first compound 0.03162 µM), 0.28; with Nelarabine + Pemetrexed (first compound 0.1 µM), 0.225; with Nelarabine + Pemetrexed (first compound 0.3162 µM) it was 0.288; in the test with Nelarabine + Pemetrexed (first compound 1 µM), 0.226.

Turning to HCC-15, the relative viability in the test with Adavosertib (0.01 µM) came out at 0.979; in the test with Adavosertib (0.03162 µM), 1.05; with Adavosertib (0.1 µM), 1.07; in the test with Adavosertib (0.3162 µM) it was 1.23; in the test with Nelarabine (0.01 µM), 1.16; with Nelarabine (0.03162 µM), 0.978. Also, the relative viability with Nelarabine (0.1 µM) is 1.06; with Nelarabine (0.3162 µM) it was 1.07; in the test with Nelarabine (1 µM), 1.06; with Adavosertib + Alpelisib (first compound 0.01 µM), 0.904; in the test with Adavosertib + Alpelisib (first compound 0.03162 µM) it was 0.916; with Adavosertib + Alpelisib (first compound 0.1 µM), 0.987. Moreover, the relative viability amounted to 1.04 with Adavosertib + Alpelisib (first compound 0.3162 µM); 0.233 with Nelarabine + Pemetrexed (first compound 0.01 µM); 0.242 in the test with Nelarabine + Pemetrexed (first compound 0.03162 µM); 0.218 in the test with Nelarabine + Pemetrexed (first compound 0.1 µM); 0.212 with Nelarabine + Pemetrexed (first compound 0.3162 µM); 0.217 with Nelarabine + Pemetrexed (first compound 1 µM).

As for HCC-44, the relative viability stood at 0.927 with Adavosertib (0.01 µM); 0.987 in the test with Adavosertib (0.03162 µM); 0.971 with Adavosertib (0.1 µM); 0.984 with Adavosertib (0.3162 µM); 1 in the test with Nelarabine (0.01 µM); 0.949 with Nelarabine (0.03162 µM). Further, the relative viability came to 0.997 with Nelarabine (0.1 µM); 0.947 with Nelarabine (0.3162 µM); 0.867 with Nelarabine (1 µM); 0.881 with Adavosertib + Alpelisib (first compound 0.01 µM); 0.864 with Adavosertib + Alpelisib (first compound 0.03162 µM); 0.813 with Adavosertib + Alpelisib (first compound 0.1 µM). Further, the relative viability worked out at 0.958 with Adavosertib + Alpelisib (first compound 0.3162 µM); 0.642 in the test with Nelarabine + Pemetrexed (first compound 0.01 µM); 0.662 in the test with Nelarabine + Pemetrexed (first compound 0.03162 µM); 0.646 with Nelarabine + Pemetrexed (first compound 0.1 µM); 0.69 with Nelarabine + Pemetrexed (first compound 0.3162 µM); 0.633 in the test with Nelarabine + Pemetrexed (first compound 1 µM).

In the case of HCC-78, the relative viability worked out at 0.85 with Adavosertib (0.01 µM); 0.973 with Adavosertib (0.03162 µM); 1.03 with Adavosertib (0.1 µM); 1.04 in the test with Adavosertib (0.3162 µM); 1.01 in the test with Nelarabine (0.01 µM); 0.942 in the test with Nelarabine (0.03162 µM). Moreover, the relative viability with Nelarabine (0.3162 µM) turned out to be 1.05; in the test with Nelarabine (1 µM), 0.932; with Adavosertib + Alpelisib (first compound 0.01 µM), 0.347; with Adavosertib + Alpelisib (first compound 0.03162 µM), 0.305; with Adavosertib + Alpelisib (first compound 0.1 µM) it was 0.443; with Adavosertib + Alpelisib (first compound 0.3162 µM), 0.278. The relative viability with Nelarabine + Pemetrexed (first compound 0.01 µM) was 0.879; in the test with Nelarabine + Pemetrexed (first compound 0.03162 µM), 0.925; with Nelarabine + Pemetrexed (first compound 0.3162 µM), 0.953; with Nelarabine + Pemetrexed (first compound 1 µM), 0.886.
